Test results taken from PMC8464850, “Sulfonium Ligands of the α7 nAChR” (Molecules, 2021).

Legend:
[1] = general knowledge, no reference given; cited from earlier work
ganglionic (α3β4) nAChR = test system: ganglionic (α3β4) nAChR; set-up: method as in earlier work; settings: 100 µM suplatast; ref 29 (Zhou et al.); cited from earlier work
α7 nAChR [2] = target: T1, α7 nAChR (Homo sapiens, UniProt P36544); assay: α7 concentration-response on co-application with 10 µM PNU-120596; assay type: cell-based; settings: peak currents, co-applied with 10 µM PNU-120596, Hill fit
T1 construct: expressed in transfected cells; host or cells: Xenopus laevis oocytes (injected RNA)
T1 sequence (P36544 23-502): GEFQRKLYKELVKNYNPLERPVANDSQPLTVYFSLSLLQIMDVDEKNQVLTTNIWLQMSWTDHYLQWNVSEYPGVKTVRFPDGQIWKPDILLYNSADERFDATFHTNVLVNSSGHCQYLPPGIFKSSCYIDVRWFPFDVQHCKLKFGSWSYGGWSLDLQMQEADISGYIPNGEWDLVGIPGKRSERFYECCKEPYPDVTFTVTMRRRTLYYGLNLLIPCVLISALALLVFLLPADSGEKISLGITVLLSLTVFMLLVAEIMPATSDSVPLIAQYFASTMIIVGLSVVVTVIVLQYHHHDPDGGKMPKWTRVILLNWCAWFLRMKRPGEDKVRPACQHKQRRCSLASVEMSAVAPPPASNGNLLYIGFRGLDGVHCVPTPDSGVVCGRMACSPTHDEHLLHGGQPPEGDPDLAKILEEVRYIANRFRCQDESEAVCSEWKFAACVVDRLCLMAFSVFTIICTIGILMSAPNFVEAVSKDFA
Description: (§1) Compounds were co-applied at a concentration of 100 µM with 30 µM racemic TQS (Figure 3A). All compounds except S4, S5, and S8 gave large responses when co-applied with TQS, consistent with silent agonism of α7 (see Table S1 for ANOVA). Active compounds were also evaluated across a range of concentrations with the alternative PAM, PNU-120596 (Figure 3B). The curve-fit values for Imax (Table 1) should be taken only as approximation of the relative efficacies of the compounds, due to the large variability frequently observed in PNU-120596-potentiated responses, as evidenced by the large SEMs of the responses obtained with high concentrations.
(§2) Figure 3 Responses of α7 nAChR to sulfonium compounds coapplied with PAMs. (A) Potentiation of α7 responses with 30 µM racemic TQS. Shown are the average net-charge responses of seven or eight oocytes ± SEM. (B) Concentration-response studies of peak currents generated by compounds that gave positive responses with TQS, coapplied with 10 µM PNU-120596. Each point represents the average (±SEM) of at least four oocytes.
(§3) Experiments were conducted using OpusXpress 6000A (Molecular Devices, Union City, CA, USA). Both the voltage and current electrodes were filled with 3 M KCl. Oocytes were voltage-clamped at −60 mV at room temperature (24 °C). The oocytes were bath-perfused with Ringer’s solution (115 mM NaCl, 2.5 mM KCl, 1.8 mM CaCl2, 10 mM HEPES, and 1 μM atropine, pH 7.2) at 2 mL/min for α7 receptors, or 4 mL/min for heteromeric nAChR. To evaluate the effects of experimental compounds, responses were compared to control ACh-evoked responses, defined as the average of two initial applications of ACh made before test applications. ACh control concentrations were 60 µM for α7 receptors; 100 µM for α4(3)β2(2) and α3β4 receptors; 30 µM for α4β2α6β2β3 and muscle-type (αβ1εδ) receptors; and 10 µM for α4(3)β2(2) and α4(2)β2(2)α5 receptors.
(§4) Solutions were applied from 96-well plates via disposable tips. Drug applications were 12 s in duration, followed by 181 s washout periods for α7 receptors, or 6 s in duration followed by 301 s washout periods for heteromeric nAChR. The responses were calculated as both peak current amplitudes and net charge, as previously described. Data were collected at 50 Hz, filtered at 20 Hz for α7 receptors or filtered at 5 Hz for heteromeric nAChR, and analyzed by Clampfit (Molecular Devices, San Jose, CA, USA) and Excel (Microsoft, Redmond, WA, USA). Data were expressed as means ± SEM from at least four oocytes for each experiment and plotted with Kaleidagraph 4.5.2 (Abelbeck Software, Reading, PA, USA). Multi-cell averages were calculated for comparisons of complex responses. Averages of the normalized data were calculated for each of the 10,322 points in each of the 206.44 s traces (acquired at 50 Hz), as well as the standard errors for those averages.

[3] = set-up: method as in PMID 11456386; settings: cited from earlier work
α7 nAChR [4] = target: T1, α7 nAChR; assay: Inhibition of α7 ACh-evoked responses; assay type: cell-based; settings: compound co-applied at 100 µM, net charge; read-out: inhibition of responses to 60 µM ACh
Description: Figure 4 Effects sulfonium compounds on α7 ACh-evoked net-charge responses. (A) Effects of the sulfonium compounds at 100 µM co-applied with 60 µM relative to responses to 60 µM ACh applied alone. Data are the averages (±SEM) from seven or eight cells under each condition. (B) Effects of select sulfonium compounds at 1 mM co-applied with 60 µM relative to responses to 60 µM ACh applied alone. Data are the averages (±SEM) from seven or eight cells under each condition. Statistical significance was determined by pairwise t-test with p values corrected for multiple comparisons; * p < 0.05, ** p < 0.001.
The sulfonium compounds that were active with TQS but produced little inhibition of ACh response at a concentration of 100 µM were tested as inhibitors of ACh response at a concentration of 1 mM (Figure 4B).
We tested S8 across a range of concentrations for its ability to inhibit 60 µM ACh responses (Figure 5A). Note that we use 60 µM as an ACh control because this concentration gives nearly maximal (93%) net-charge responses, with the time course of the responses roughly following the speed of solution exchange. […] We tested whether inhibition of α7 responses by S8 was surmountable by increasing ACh concentration, consistent with a competitive mechanism of inhibition. However, since α7 responses to concentrations of ACh greater than 60 µM occur more rapidly than solution exchange in the chamber, we first pre-applied 5 µM S8 prior to the co-application of 5 µM S8 with either 60 µM or 1 mM ACh (Figure 5B). The 60 µM net-charge responses were reduced to 28 ± 2% of controls (n = 8) and 60 µM peak currents to 21 ± 3 % controls. The 1 mM net-charge responses were reduced to 56 ± 6 % of those obtained without S8 co-application, although the S8 co-application increased the peak-current amplitudes compared to 60 µM controls from 1.78 ± 0.15 to 3.72 ± 0.81 (n = 8).
Figure 5 Inhibition of α7 ACh-evoked responses by S8. (A) Concentration-response studies of α7 net-charge responses to 60 µM ACh co-applied with increasing concentrations of S8. To confirm the stability of the ACh responses, applications of ACh plus S8 were alternated with applications of ACh alone. Data are the averages of eight cells (±SEM). See text for curve-fit values. (B) Effects of 5 µM S8 on responses to either 60 µM or 1 mM ACh. The traces shown across the top are the averaged raw data from seven cells, each normalized to the peak current of the first ACh control response shown. In order to assure that the S8 was present at 5 µM throughout the ACh-evoked responses, a 30 s pre-application was made of 5 µM S8 alone. The lower traces show averaged responses to 60 µM or 1 mM ACh alone or with the 5 µM S8 pre- and co-application. The details of the data are described in Methods.
as §3
Solutions were applied from 96-well plates via disposable tips. Drug applications were 12 s in duration, followed by 181 s washout periods for α7 receptors, or 6 s in duration followed by 301 s washout periods for heteromeric nAChR. […]

α7 nAChR [5] = target: T1, α7 nAChR; assay: α7 responses on co-application with the type II PAM TQS (silent agonism); assay type: cell-based
Description: as §1, §2
The human nAChR clones were obtained from Jon Lindstrom (University of Pennsylvania, Philadelphia, PA, USA). Mouse muscle subunit clones were obtained from Jim Boulter (Salk Institute, La Jolla, CA, USA) and Paul Gardner (Dartmouth, Hanover, NH, USA). The human resistance-to-cholinesterase 3 (RIC3) clone was obtained from Millet Treinin (Hebrew University, Jerusalem, Israel) and co-injected with α7 to improve the level and speed of α7 receptor expression without affecting the pharmacological properties of the receptors. Subsequent to linearization and purification of the plasmid DNAs, RNAs were prepared using the mMessage mMachine in vitro RNA transcription kit (Ambion, Austin, TX, USA).
as §3, §4

α3β4 nAChR = target: T2, α3β4 nAChR (Homo sapiens, UniProt P30926+P32297); assay: Inhibition of α3β4 100 µM ACh-evoked peak currents; assay type: cell-based
T2 construct: expressed in transfected cells; host or cells: Xenopus laevis oocytes (injected RNA)
T2 sequence (P32297 32-505): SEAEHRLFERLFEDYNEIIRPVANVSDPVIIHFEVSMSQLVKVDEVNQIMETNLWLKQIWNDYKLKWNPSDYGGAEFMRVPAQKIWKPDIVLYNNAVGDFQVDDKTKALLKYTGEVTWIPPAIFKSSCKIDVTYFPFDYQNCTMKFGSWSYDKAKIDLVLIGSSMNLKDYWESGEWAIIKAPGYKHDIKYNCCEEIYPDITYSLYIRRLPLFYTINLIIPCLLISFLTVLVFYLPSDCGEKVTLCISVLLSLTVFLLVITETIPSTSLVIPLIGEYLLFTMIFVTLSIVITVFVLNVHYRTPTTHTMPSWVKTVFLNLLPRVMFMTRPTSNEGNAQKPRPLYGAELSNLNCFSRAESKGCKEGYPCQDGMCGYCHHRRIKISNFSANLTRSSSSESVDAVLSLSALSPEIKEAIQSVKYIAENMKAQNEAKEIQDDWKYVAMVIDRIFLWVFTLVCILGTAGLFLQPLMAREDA
T2 sequence (P30926 22-498): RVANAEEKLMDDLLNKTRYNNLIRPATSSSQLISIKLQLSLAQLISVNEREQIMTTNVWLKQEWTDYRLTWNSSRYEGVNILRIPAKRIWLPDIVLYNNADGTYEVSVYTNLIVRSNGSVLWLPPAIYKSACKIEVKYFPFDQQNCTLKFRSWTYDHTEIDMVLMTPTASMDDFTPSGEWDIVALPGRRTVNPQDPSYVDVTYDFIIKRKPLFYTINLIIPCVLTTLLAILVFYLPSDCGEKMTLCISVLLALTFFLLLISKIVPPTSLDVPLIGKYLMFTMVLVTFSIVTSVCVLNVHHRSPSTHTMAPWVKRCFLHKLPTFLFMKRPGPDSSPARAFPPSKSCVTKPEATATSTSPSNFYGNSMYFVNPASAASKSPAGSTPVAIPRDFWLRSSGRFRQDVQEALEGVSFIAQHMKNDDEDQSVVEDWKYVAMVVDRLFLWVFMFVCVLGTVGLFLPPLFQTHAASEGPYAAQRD
Description: Although none of the other sulfonium compounds activated neuronal heteromeric receptors, several of them produced inhibition of ACh-evoked responses. Shown in Figure 7A are concentration-response studies for the compounds that were active antagonists of α3β4 nAChR (Table 3). Some compounds were also tested as antagonists of α4β2 subtypes formed with concatamers (Figure 7B).
Figure 7 Inhibition of heteromeric nAChR by sulfonium compounds. (A) Inhibition of α3β4 100 µM ACh-evoked peak currents by the co-application of the sulfonium compounds. Data are the averaged of six to eight oocytes (±SEM). To confirm the stability of the ACh responses, applications of ACh plus the sulfonium compounds were alternated with applications of ACh alone. (B) Inhibition of ACh control peak-current responses of α4-containing nAChR formed with concatamers by 100 µM of the sulfonium compounds indicated. Data are the average of six to eight oocytes (±SEM).
as §3, §4

SMILES	pKa for the phenolic hydroxyl [1]	effect on ganglionic (α3β4) nAChR (ganglionic (α3β4) nAChR)	IMax (PNU Activation) (α7 nAChR [2]; approximation only)	EC50 (α7 nAChR [2]; read-out: EC50 (PNU Activation)) [µM]	distribution to the brain [3]	oral bioavailability [3]	inhibition at 100 µM (α7 nAChR [4]) [%]	relative activity as α7 silent agonist / desensitizer (rank order) (α7 nAChR [5]; 100 µM with 30 µM TQS, Figure 3A, listed as suplatast)	α7 functional classification (silent agonist / inactive) (α7 nAChR [5]; inactive alone, active with a PAM = silent agonist)	surmountability of α3β4 inhibition by ACh (α3β4 nAChR; 5 µM S6, 1 mM ACh vs 30 µM ACh, data not shown)	IC50 (α3β4 nAChR; co-application with 100 µM ACh, peak currents) [µM]
O=[N+]([O-])c1ccc(O)cc1 [para-nitrophenol]	~ 7										
CCOCC(O)COc1ccc(NC(=O)CC[S+](C)C)cc1.Cc1ccc(S(=O)(=O)[O-])cc1 (centres unmarked) [Compound S6, (3-((4-(3-ethoxy-2-hydroxypropoxy)phenyl)amino)-3-oxopropyl)dimethylsulfonium tosylate, reference compound]		channel block	2.2 ± 0.3	12.5 ± 4.9	poor	orally bioavailable	~50	most desensitizing	silent agonist activity	not surmountable by increasing ACh concentration	4.5 ± 0.6
